# Source: patent US10111427B2, “Formulation for improving the yield and quality of fiber in cotton plants” (Council of Scientific & Industrial Research, priority 2015, dated 2018)
# Tests used:
# cultured cotton ovules [1] = assay: Ovule culture with different phytohormones with and without Anacardic acid; type: cell-based; conditions: 12 DPA; for growth in cultures having Anacardic acid with phytohormone: Anacardic acid added at 3 DPA, in comparison to control where only phytohormones were used; for Lignin content of ovules cultured with Anacardic acid and phytohormone: toluidine blue, in comparison to control wherein only phytohormones are used
# Method: To check the effect of the phytohormones on fiber development for better yield and quality of fibers, different phytohormones and their combinations were tested first tested on cultured ovules. Cotton buds and flowers at 1 DPA stage were plucked from the plants for the ovule culture. Ovaries were surface sterilized using 1% Mercuric chloride solution and washed three times with MQ water. Ovules were excised using sterilized fine forceps and brushes. Isolted ovules (3-5) were transferred to culture media with different 5 μM of 1-Naphthaleneacetic acid (1NAA), Indole-3-acetic acid (IAA), 2,4-Dichlorophenoxyacetic acid (2,4-D), Kinetin, Zeatin and 0.5 μM Gibberellic acid (GA3)along with untreated ovules (having no phytohormones) placed in 35mm tissue culture dishes in two sets. All the dishes were further places in incubators set at 32° C. In one set of dishes, Anacardic acid was added to 3 DPA stage, while the other set was used to control. It has been observed that at 12 DPA stage growth in cultures having Anacardic acid with phytohormones like 1-NAA, IAA, 2,4-D and GA3 at […] was better in comparison to the control conditions, where only phytohormones were used (FIG. 8). […] For the lignin qualification, ovules were boiled in distilled water with a drop of concentrated HCl to dissolve waxes and leave the fibers hydrophilic. After rinsing in distilled water, three ovules per sample were places in a 50 ml falcon tube and stained with 30 ml. of toluidine blue solution (0.018% toluidine blue, 0.016 M Na2HPO4, 0.01 M citric acid, pH 4.5) for 30 s. After staining, the ovules were rinsed thoroughly with distilled water and briefly laid on absorbent paper to remove excess water. Ovules were then returned to 50 ml falcon tubes and 50 ml of destaining solution comprising glacial acetic acid, ethanol and water (10:95:5) added. After vigorous shaking and destaining for at least 1 h, 200μl of the solution was pipetted in triplicate into 96-well flat bottom microtiter plates for measurement of absorbance at 624 nm in a plate reader.
# cultured cotton ovules [2] = assay: In-vitro cotton ovule culture assay, phenotypic observation of fiber growth; type: cell-based; conditions: tested 1-NAA 1, 5, 10, 20 μM; GA3 0.1, 0.5, 1, 5 μM; Anacardic acid 2, 4, 8, 10 μM; 32° C.
# From the text: In the present invention, Anacardic acid may be dissolved in solvents selected from Dimethyl Sulfoxide (DMSO), Dimethyl formamide (DMFO), ethanol methanol, dichloromethane, ether, petroleum ether and ethyl acetate in a suitable concentration and mixed with 1Naphthaleneacetic Acid (1-NAA) and Gibberellic acid (GA3). For standardization of appropriate concentrations of phytohormones and Anacardic acid for better yield and quality of fiber, the formulation and its components were first tested on cultured ovules. Different concentrations of 1-NAA (1, 5, 10 and 20 μM) and GA3 (0.1, 0.5, 1 and 5 μM) were tested in ovule culture media and established that fiber growth was better at 5 μM 1-NAA and 0.5 μM GA3. Similarly, different concentrations of Anacardic acid (2, 4, 8 and 10 μM) were also used and established that fiber growth was better at 8 μM Anacardic acid in media in comparison to other concentrations.
# Formulation was diluted with modified ½ MSL (Murasighe Skoog Liquid) media having 2% sucrose for a final concentration of Anacardic acid to 8 μM, 1-NAA to 5 μM and GA3 to 0.5 μM. This formulation was then used to culture cotton, ovules excised at −3 DPA (Day Post Anthesis) to study its effect on fiber initiation and at 0 DPA for fiber elongation. Ovules were examined (at 3 DPA for initiation and at 12 DPA for elongation stage) and photographed (Example 1). […] Cotton ovules cultured with the formulation (1-NAA+GA3+ Anacardic acid) in culture media show higher number of initiating fibers and better growth in comparison to control ovules (only phytohormones treated).
# For standardization of appropriate concentrations of phytohormones and Anacardic acid for better yield and quality of fiber, the formulation and its components were first tested on cultured ovules. […]
# Finally, in-vitro ovule culture experiment was performed with 8 μM Anacardic acid, 5 μM 1-NAA and 0.5 μM GA3 in media along with control sample having only 5 μM 1-NAA and 0.5 μM GA3. The phenotypic observations were recorded at 3 DPA for initiation stage and at 12 DPA for elongation stage (FIG. 1).
SMILES,growth in cultures having Anacardic acid with phytohormone (cultured cotton ovules [1]),Lignin content of ovules cultured with Anacardic acid and phytohormone (cultured cotton ovules [1]),concentration at which fiber growth in ovule culture was better (cultured cotton ovules [2]) [µM]
"O=C(O)Cc1cccc2ccccc12 [1-NAA, 1-Naphthaleneacetic acid]",better,higher,5
"O=C(O)COc1ccc(Cl)cc1Cl [2,4-D, 2,4-Dichlorophenoxyacetic acid]",better,higher,
CCCCCCCCCCCCCCCc1cccc(O)c1C(=O)O [Anacardic acid],,,8
"C=C1C[C@]23C[C@@]1(O)CC[C@H]2[C@@]12C=C[C@H](O)[C@@](C)(C(=O)O1)[C@H]2[C@@H]3C(=O)O [GA3, Gibberellic acid]",better,higher,0.5
"O=C(O)Cc1c[nH]c2ccccc12 [IAA, Indole-3-acetic acid]",better,higher,
